From patent US10946019B2, “Nurr1:RXR activating compounds for simultaneous treatment of symptoms and pathology of Parkinson's disease” (priority 2015, dated 2021)

Assays:
[1] = test system: LRRK2-G2019S mutated DAergic neurons; test: Neurite phenotypes of PD patient LRRK2-G2019S iPSc-derived DAergic neurons; type: cell-based, human; conditions: 12.5 μM for 14 days
Description: (§1) To ascertain the translational therapeutic potential of compound 3, we tested whether human midbrain-specific iPSc-derived DAergic neurons, as indicated by positive staining and qPCR for the neuronal markers MAP2, TH, FoxA2, Lmx1 and En1, can be protected from MPP+ toxicity. Compound 3 was able to double the number of surviving neurons after MPP+ exposure within 24 hours, compared to vehicle (FIGS. 72J-72L). The surviving control neurons had fewer and retreating projections, indicating compromised function (FIG. 72K) while the neurons that had received compound 3 had retained a complex network of projections and contacts (FIG. 72L). In addition, we tested compound 3 in iPSc-derived DAergic neurons from a PD patient carrying the LRRK2-G2019S mutation.

ASYN transgenic mice = test: Striatal dopamine levels in ASYN transgenic mice by HPLC; type: in vivo, mouse; conditions: single IP 10 mg/kg, vs vehicle
Description: (§2) Given the role of Nurr1:RXRα activation in the transcriptional regulation of DA biosynthesis genes, we tested whether compound 3 could increase DA levels in wt and ASYN transgenic mice (Tofaris et al. J. Neurosci. 26:3942-3950, 2006), which display reduced striatal DA levels after reaching adulthood. […] Aiming to model PD based on human genetic data, we also tested whether compound 3 could increase DA levels in ASYN transgenic mice. A single IP injection of compound 3 (10 mg/kg) was able increase striatal DA (t test p=0.01069) and DA metabolite levels in ASYN transgenics as well (FIG. 75C) in comparison to mice receiving vehicle.

[2] = test system: human midbrain-specific iPSc-derived DAergic neurons; test: Survival of iPSc-derived DAergic neurons exposed to MPP+; type: cell-based; conditions: within 24 hours, compared to vehicle
Description: as §1

C57/BL6 mice = test: Porsolt forced swim test after chronic mild stress; type: in vivo, mouse; conditions: CMS mice, 2×10 mg/kg IP spaced 2 hours apart, 4 hours after last injection
Description: The chronic mild stress (CMS) procedure was applied semi randomly to each mouse and consisted of a variety of unpredictable mild environmental, social and physical stressors, including confinement in a small tube (1 hours), an empty cage without sawdust (15 hours), water and food deprivation (15 hours), food restriction (approximately 50 mg of food pellets, 3 hours), cage tilted at 45° (1-3 hours), damp sawdust (approximately 200 ml of water per 100 g of sawdust, 3 hours), paired housing in damp sawdust (18 hours), reversal of the light/dark cycle, 2-hour light/dark succession every 30 minutes, as well as light (15-17 hours) and dark (4-6 hours). Compound 3 (2×10 mg/kg spaced 2 hours apart) or vehicle control (Ethanol:PG:Saline, 10:30:60), was administered IP to mice. 4 hours after the last injection, mice were evaluated in the Porsolt forced swim test. […] Recorded behaviors for “floating” (the mouse is completely still in the water, except for isolated movements to right itself) and “swimming” (movement of all four legs with body aligned horizontally in the water) were measured (in seconds) for each mouse.

[3] = test system: tyrosine hydroxylase (TH); test: Midbrain tyrosine hydroxylase expression by qPCR after administration to mice; type: in vivo, mouse; conditions: wt mice, single IP 10 mg/kg, within 4 hours
Description: To assess the neuroprotective effect of compound 3, this compound was dosed to wt mice intraperitoneally (IP) at 10 mg/kg injections of compound 3 in Ethanol:PG:Saline 10:30:60. After 2 h and 4 h animals (n=3 per time point) were sacrificed, and their brains obtained. After extraction c-jun and tyrosine hydroxylase (TH) levels in brain extract were determined by qPCR (FIG. 1E, 1F).
as §2

[4] = Plasma and brain concentrations by LC-MS/MS after IP administration to mice; type: in vivo, mouse; conditions: mouse, in vivo, ip
Description: FIGS. 68A and 68B show the pharmacokinetic profile of XCT in blood plasma and in the brain of mice injected with this compound. […] Serial tail bleeds (n=3) were used for detection of the compound in plasma 1 and 2 hours after IP administration. Similarly, mice (n=3) were sacrificed 1 and 2 hours after IP administration and brains were dissected. The concentrations of the parent compound in plasma and brain were determined by LC-MS/MS.
The concentrations of the parent compound in plasma and brain were determined by LC/MSMS.
XCT0135908 was administered to mice to test its bioactivity.

Rat cortical neurons = test: Apoptosis of cortical neurons transfected with LRRK2-G2019S, DAPI staining; type: cell-based; conditions: rat cortical neurons co-transfected with CMV-GFP and LRRK2-G2019S
Description: (§3) We examined the neuroprotective capability of Nurr1:RXRα heterodimer activation in SHSY-5Y cells where death was induced by either the oxidative stress related H2O2 or the mitochondria complex I inhibitor MPP+ (1-methyl-4-phenylpyridinium) (FIG. 72B). […] The protection conferred by compound 3 was Nurr1-dependent, since it was abrogated by knocking-down endogenous Nurr1 mRNA (FIGS. 1E and 72D). The neuroprotective effects of compound 3 extend to damage induced by the PD-associated mutation G2019S in the Leucine-Rich Repeat Kinase 2 (LRRK2) gene, the most common genetic defect associated with clinical PD (Tofaris et al. J. Neurosci. 26:3942-3950, 2006). Rat cortical neurons, co-transfected with CMV-GFP for identification, and CMVLRRK2-G2019S cDNAs show increased apoptosis as assessed by DAPI staining, compared to control neurons co-transfected with a LRRK2 wt cDNA.

SHSY-5Y cells = test: H2O2 induced cell death, MTT assay; type: cell-based, human; conditions: 12.5 μM, varying concentrations of H2O2
Description: FIGS. 72A-72R show the ability of compound 3 to induce the expression of genes involved in dopamine biosynthesis as well as the neuroprotective effects of compound 3 in cell lines and patient iPCs-derived dopaminergic neurons. […] FIGS. 72F, 72G, 72H, and 72I show representative confocal microscopy images of the compound 3-treated primary rat cortical neurons. […] FIG. 72M-72R show the effects of compound 3 on PD patient iPS cell-derived dopaminergic neurons with the LRRK2-G2019S mutation or corrected mutation (GC). Compound 3 treatment rescues neurite length (M, expressed in […]), number (N) and branching (O) phenotypes. Representative images show staining with TuJ, TH and DAPI (FIGS. 72P, 72Q, and 72R).
as §3, with “The neuroprotective effects of compound 3 extend to damage induced by the PD-associated mutation G2019S in the Leucine-Rich Repeat Kinase 2 (LRRK2) gene, the most common genetic defect associated with clinical PD (Tofaris et al. J. Neurosci. 26:3942-3950, 2006).” left out

[5] = biological target: Nur77GAL4:RXRαVP16 heterodimers (Homo sapiens (Human), UniProt P19793); test: GAL4/VP16 chimera specificity luciferase assay in SHSY-5Y; type: cell-based; conditions: GAL4-responsive luciferase reporter
Nur77GAL4:RXRαVP16 heterodimers, sequence (P19793 whole entry, looked up, the tested form may be a part): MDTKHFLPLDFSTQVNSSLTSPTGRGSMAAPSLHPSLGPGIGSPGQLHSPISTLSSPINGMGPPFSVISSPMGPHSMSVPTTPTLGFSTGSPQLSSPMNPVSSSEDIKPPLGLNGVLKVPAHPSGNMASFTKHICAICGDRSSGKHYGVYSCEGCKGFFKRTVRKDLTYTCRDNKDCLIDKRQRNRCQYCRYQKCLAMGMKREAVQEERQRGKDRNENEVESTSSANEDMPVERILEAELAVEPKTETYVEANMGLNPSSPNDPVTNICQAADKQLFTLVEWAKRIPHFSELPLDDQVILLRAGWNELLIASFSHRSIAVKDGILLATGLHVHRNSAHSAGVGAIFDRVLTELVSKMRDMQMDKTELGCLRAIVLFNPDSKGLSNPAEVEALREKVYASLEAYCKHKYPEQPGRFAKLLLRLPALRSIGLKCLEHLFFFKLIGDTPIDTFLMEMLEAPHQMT
Nur77GAL4:RXRαVP16 heterodimers, sequence (P22736 whole entry partner, looked up, the tested form may be a part): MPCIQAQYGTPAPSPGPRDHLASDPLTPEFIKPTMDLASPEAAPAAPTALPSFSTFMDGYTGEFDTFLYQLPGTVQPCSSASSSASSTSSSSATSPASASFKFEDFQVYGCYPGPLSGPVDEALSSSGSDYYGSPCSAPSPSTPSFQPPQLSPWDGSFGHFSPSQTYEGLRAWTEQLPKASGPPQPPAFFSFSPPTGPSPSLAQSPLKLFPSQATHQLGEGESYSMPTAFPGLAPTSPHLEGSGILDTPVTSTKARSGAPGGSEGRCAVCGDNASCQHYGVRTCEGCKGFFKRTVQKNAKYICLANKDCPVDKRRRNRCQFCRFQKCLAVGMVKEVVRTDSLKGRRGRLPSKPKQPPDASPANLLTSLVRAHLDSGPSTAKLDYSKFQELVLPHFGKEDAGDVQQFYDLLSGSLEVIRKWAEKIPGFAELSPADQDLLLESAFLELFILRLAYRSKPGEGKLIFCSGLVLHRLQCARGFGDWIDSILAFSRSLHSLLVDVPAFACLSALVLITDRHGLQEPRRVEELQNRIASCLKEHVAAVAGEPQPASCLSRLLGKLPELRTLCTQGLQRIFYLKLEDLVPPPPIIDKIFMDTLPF
Description: To test off-target effects of compound 3 on complexes aside from Nurr1:RXRα heterodimers, we fused the ligand binding domains of Nurr1, RXRα and a variety of related nuclear receptors to GAL4 DNA-binding domain to create chimeric proteins, while the ligand-binding domain of RXRα was also fused with VP16. These molecular chimeras were co-transfected in pairs with the RXRα:VP16 along with a GAL4-responsive luciferase reporter in SHSY-5Y, which were stimulated with compound 3. […] The above experiments indicate the high degree of selectivity of compound 3 and point to its neuroprotective potential.

With `C=CCc1c(N(C)c2ccc(C(=O)O)cc2)nc(-c2ccccc2)nc1C(F)(F)F` [Example 3, 4-((5-allyl-2-phenyl-6-(trifluoromethyl)pyrimidin-4-yl)(methyl)amino)benzoic acid] the “increase of neurite branching” value [1] was 650%, the “increase of neurite length” value [1] was 83% and the “increase of neurite number” value [1] was 38%. The “striatal DA and DA metabolite levels” value (ASYN transgenic mice) was “increase”, the “number of surviving neurons after MPP+ exposure” value [2] was “double” and the “decrease of floating time” value (C57/BL6 mice) was 61.48%. For the same compound, the “increase of swimming time” value (C57/BL6 mice) was 31.7%, the “TH gene expression in the midbrain” value [3] was “increased” and the brain penetration [4] was “reaching the brain”. For the same compound, the half-life ([4]; 1 mg/kg) was ~120 min, the “apoptosis induced by LRRK2-G2019S” value (Rat cortical neurons) was “reduced apoptosis to control levels” and the “cell survival against H2O2” value (SHSY-5Y cells) was “significantly increased cell survival”. For the same compound, the “activation of Nur77GAL4:RXRαVP16 heterodimers” value [5] was “partially activated”.
